Test results from patent US6150385A, “1,3,4-thiadiazoles useful for the treatment of CMV infections” (Pharmacia & Upjohn Company, priority 1999, dated 2000).

target: T1, HCMV polymerase (Human cytomegalovirus, UniProt P08546); experiment: HCMV polymerase assay (scintillation proximity assay); assay type: biochemical; settings: percentage of inhibition at 25 μM concentration in CMV polymerase assay
T1 construct: made in house; host or cells: SF-9 insect cells infected with recombinant baculovirus
T1 sequence (P08546 whole entry): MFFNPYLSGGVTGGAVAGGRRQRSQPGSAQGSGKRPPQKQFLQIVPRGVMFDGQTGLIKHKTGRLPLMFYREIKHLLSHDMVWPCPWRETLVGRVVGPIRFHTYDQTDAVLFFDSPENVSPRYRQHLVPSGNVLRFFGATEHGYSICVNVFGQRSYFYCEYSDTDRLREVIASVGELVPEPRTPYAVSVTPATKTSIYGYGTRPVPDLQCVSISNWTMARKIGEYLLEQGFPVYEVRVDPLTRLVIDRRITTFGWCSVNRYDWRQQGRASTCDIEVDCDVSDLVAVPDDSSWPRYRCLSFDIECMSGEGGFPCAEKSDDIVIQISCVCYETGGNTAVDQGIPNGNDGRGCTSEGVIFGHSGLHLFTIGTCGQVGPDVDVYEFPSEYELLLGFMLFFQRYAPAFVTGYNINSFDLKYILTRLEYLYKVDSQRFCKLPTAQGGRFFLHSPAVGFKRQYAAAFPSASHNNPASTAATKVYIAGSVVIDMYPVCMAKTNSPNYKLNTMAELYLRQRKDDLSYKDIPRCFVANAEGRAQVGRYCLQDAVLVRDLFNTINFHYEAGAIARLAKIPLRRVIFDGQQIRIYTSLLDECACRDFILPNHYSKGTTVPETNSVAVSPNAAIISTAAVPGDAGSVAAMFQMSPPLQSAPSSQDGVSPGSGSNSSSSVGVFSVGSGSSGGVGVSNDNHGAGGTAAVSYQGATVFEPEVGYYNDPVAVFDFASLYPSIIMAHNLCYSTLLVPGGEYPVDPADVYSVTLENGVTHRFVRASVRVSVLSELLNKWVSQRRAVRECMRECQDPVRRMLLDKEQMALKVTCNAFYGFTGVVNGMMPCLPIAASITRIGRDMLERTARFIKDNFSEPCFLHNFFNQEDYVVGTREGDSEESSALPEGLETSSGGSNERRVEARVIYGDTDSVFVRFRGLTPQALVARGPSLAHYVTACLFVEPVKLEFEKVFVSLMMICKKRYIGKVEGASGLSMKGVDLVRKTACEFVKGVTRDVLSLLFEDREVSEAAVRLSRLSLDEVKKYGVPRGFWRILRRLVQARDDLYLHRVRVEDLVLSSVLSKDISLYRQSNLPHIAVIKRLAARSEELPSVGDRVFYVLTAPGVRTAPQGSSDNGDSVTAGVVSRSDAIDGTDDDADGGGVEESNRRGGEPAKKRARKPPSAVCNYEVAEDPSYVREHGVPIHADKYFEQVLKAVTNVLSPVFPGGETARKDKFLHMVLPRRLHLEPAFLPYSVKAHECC
Procedure, shortened: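 Baculovirus/SF-9-expressed HCMV polymerase in 5.4 mM HEPES pH 7.5, 11.7 mM KCl, 4.5 mM MgCl2, 0.36 mg/ml BSA, 90 nM 3H-dTTP, with or without 2 mM CHAPS. Started with 6 nM biotinylated poly(dA)-oligo(dT), 30 min at 25 or 37 °C, EDTA-stopped, read by streptavidin-SPA counting; % inhibition at 25 μM.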

| SMILES | inhibition at 25 µM [%] | % Inhib [%] |
| --- | --- | --- |
| CCOc1ccc2ccccc2c1C(=O)Nc1nnc(NCC2CCCCC2)s1 [compound 431, N-{5-[(cyclohexylmethyl)amino]-1,3,4-thiadiazol-2-yl}-2-ethoxy-1-naphthamide] | 23.1 | – |
| O=C(/C=C/c1ccccc1)Nc1nnc(NCCN2CCCC2)s1 [compound 432, (E)-3-phenyl-N-(5-{[2-(1-pyrrolidinyl)ethyl]amino}-1,3,4-thiadiazol-2-yl)-2-propenamide] | 23 | – |
| O=C(Nc1nnc(NCC2CCCCC2)s1)c1ccc(F)cc1F [compound 433, N-{5-[(cyclohexylmethyl)amino]-1,3,4-thiadiazol-2-yl}-2,4-difluorobenzamide] | 22.9 | – |
| O=C(Nc1nnc(NCCNc2ccccc2)s1)c1ccc(Br)cc1 [compound 434, N-{5-[(2-anilioethyl)amino]-1,3,4-thiadiazol-2-yl}-4-bromobenzamide] | 22.8 | – |
| CC(C)c1cc(C(C)C)c(C(=O)Nc2nnc(NCCC#N)s2)c(C(C)C)c1 [compound 435, N-{5-[(2-cyanoethyl)amino]-1,3,4-thiadiazol-2-yl}-2,4,6-triisopropylbenzamide] | 22.8 | – |
| COc1ccc(CNc2nnc(NC(=O)c3cccc([N+](=O)[O-])c3)s2)cc1OC [compound 436, N-{5-[(3,4-dimethoxybenzyl)amino]-1,3,4-thiadiazol-2-yl}-3-nitrobenzamide] | 22.8 | – |
| O=C(Nc1nnc(NCCc2ccccc2)s1)c1cc(F)cc(F)c1 [compound 437, 3,5-difluoro-N-[5-(phenethylamino)-1,3,4-thiadiazol-2-yl]benzamide] | 22.7 | – |
| O=C(Nc1nnc(NCCNc2ccccc2)s1)c1c(Cl)cccc1Cl [compound 438, N-{5-[(2-anilinoethyl)amino]-1,3,4-thiadiazol-2-yl}-2,6-dichlorobenzamide] | 22.6 | – |
| O=C(/C=C/c1ccccc1Cl)Nc1nnc(NCC2CCCCC2)s1 [compound 439, (E)-3-(2-chlorophenyl)-N-{5-[(cyclohexylmethyl)amino]-1,3,4-thiadiazol-2-yl}-2-propenamide] | 22.5 | – |
| CC(C)c1cc(C(C)C)c(C(=O)Nc2nnc(NC[C@@H]3CCC4CC3C4(C)C)s2)c(C(C)C)c1 (stereo partly drawn) [compound 440, N-[5-({[(2R)-6,6-dimethylbicyclo[3.1.1]hept-2-yl]methyl}amino)-1,3,4-thiadiazol-2-yl]-2,4,6-triisopropylbenzamide] | 22.5 | – |
| CCCCCCCCCCCNc1nnc(NC(=O)c2c(C(C)C)cc(C(C)C)cc2C(C)C)s1 [compound 441, 2,4,6-triisopropyl-N-[5-(undecylamino)-1,3,4-thiadiazol-2-yl]benzamide] | 22.5 | – |
| CC(C)c1cc(C(C)C)c(C(=O)Nc2nnc(NCc3ccco3)s2)c(C(C)C)c1 [compound 442, N-{5-[(2-furylmethyl)amino]-1,3,4-thiadiazol-2-yl}-2,4,6-triisopropylbenzamide] | 22.3 | – |
| O=C(/C=C/c1ccccc1Cl)Nc1nnc(NCc2cccc3ccccc23)s1 [compound 443, (E)-3-(2-chlorophenyl)-N-{5-[(1-naphthylmethyl)amino]-1,3,4-thiadiazol-2-yl]-2propenamide] | 22.1 | – |
| CC(C)c1cc(C(C)C)c(C(=O)Nc2nnc(NCCN(C)C)s2)c(C(C)C)c1 [compound 444, N-(5-{[2-(dimethylamino)ethyl]amino}-1,3,4-thiadiazol-2-yl)-2,4,6-triisopropylbenzamide] | 21.9 | – |
| O=C(Nc1nnc(NCCc2cccs2)s1)c1ccc(F)cc1F [compound 445] | 21.9 | – |
| NS(=O)(=O)c1ccc(CCNc2nnc(NC(=O)c3ccc(C(F)(F)F)cc3)s2)cc1 [compound 446, N-(5-{[4-(aminosulfonyl)phenethyl]amino}-1,3,4-thiadiazol-2-yl)-4-(trifluoromethyl)benzamide] | 21.8 | – |
| CCSCCNc1nnc(NC(=O)c2ccc(Cl)c(Cl)c2)s1 [compound 447, 3,4-dichloro-N-(5-{[2-(ethylsulfanyl)ethyl]amino]-1,3,4-thiadiazol-2-yl)benzamide] | 21.6 | – |
| O=C(Nc1nnc(NCCc2c[nH]cn2)s1)c1c(Cl)cccc1Cl [compound 448, 2,6-dichloro-N-(5-{[2-(1H-imidazol-4-yl)ethyl]amino}-1,3,4-thiadiazol-2-yl)benzamide] | 21.6 | – |
| Cc1ccc(C(=O)Nc2nnc(NCC3CCCCC3)s2)cc1 [compound 449, N-{5-[(cyclohexylmethyl)amino]-1,3,4-thiadiazol-2-yl}-4-methylbenzamide] | 21.5 | – |
| CCOc1ccc2ccccc2c1C(=O)Nc1nnc(NCC2CCCO2)s1 (centres unmarked) [compound 450, 2-ethoxy-N-{5-[(tetrahydro-2-furanylmethyl)amino]-1,3,4-thiadiazol-2-yl}-1-naphthamide] | 21.4 | – |
| O=C(Nc1nnc(NCc2ccc(F)cc2)s1)c1cc(F)cc(F)c1 [compound 451, 3,5-difluoro-N-{5-[(4-fluorobenzyl)amino]-1,3,4-thiadiazol-2-yl}benzamide] | 21.4 | – |

| SMILES | inhibition at 25 µM [%] | % Inhib [%] |
| --- | --- | --- |
| COc1ccccc1C(=O)Nc1nnc(NCc2ccc(Cl)c(Cl)c2)s1 [compound 452, N-{5-[(3,4-dichlorobenzyl)amino]-1,3,4-thiadiazol-2-yl}-2-methoxybenzamide] | 21.3 | – |
| O=C(Nc1nnc(NCCN2CCOCC2)s1)c1cc2ccccc2s1 [compound 453, N-{5-[(2-morpholinoethyl)amino]-1,3,4-thiadiazol-2-yl}-1-benzothiophene-2-carboxamide] | 21.2 | – |
| O=C(Nc1nnc(NCCc2c[nH]cn2)s1)c1ccc(I)cc1 [compound 454, N-(5-{[2-(1H-imidazol-4-yl)ethyl]amino}-1,3,4-thiadiazol-2-yl)-4-iodobenzamide] | 21.2 | – |
| O=C(Nc1nnc(NC2CCN(Cc3ccccc3)CC2)s1)c1ccc(Br)cc1 [compound 455, N-{5-[(1-benzyl-4-piperidinyl)amino]-1,3,4-thiadiazol-2-yl}-4-bromobenzamide] | 20.8 | – |
| O=C(Nc1nnc(NC2CCN(Cc3ccccc3)CC2)s1)c1ccc([N+](=O)[O-])o1 [compound 456, N-{5-[(1-benzyl-4-piperidinyl)amino]-1,3,4-thiadiazol-2-yl}-5-nitro-2-furamide] | 20.8 | – |
| Cc1ccc(C(=O)Nc2nnc(NCc3cccc4ccccc34)s2)cc1 [compound 457, 4-methyl-N-{5-[(1-naphthylmethyl)amino]-1,3,4-thiadiazol-2-yl}benzamide] | 20.7 | – |
| O=C(Nc1nnc(NCCc2c[nH]c3ccccc23)s1)c1cc(F)cc(F)c1 [compound 458, 3,5-difluoro-N-(5-{[2-(1H-indol-3-yl)ethyl]amino}-1,3,4-thiadiazol-2-yl)benzamide] | 20.7 | – |
| O=C(Nc1nnc(NCc2ccc3c(c2)OCO3)s1)c1ccc(I)cc1 [compound 459, N-{5-[(1,3-benzodioxol-5-ylmethyl)amino]-1,3,4-thiadiazol-2-yl}-4-iodobenzamide] | 20.7 | – |
| O=C(Nc1nnc(NC2CCN(Cc3ccccc3)CC2)s1)c1ccc(S(=O)(=O)F)cc1 [compound 460, 4-[({5-[(1-benzyl-4-piperidinyl)amino]-1,3,4-thiadiazol-2-yl}amino)carbonyl]benzenesulfonyl fluoride] | – | 20.7 |
| CCCCC(CC)CNc1nnc(NC(=O)c2ccc(Cl)c(Cl)c2)s1 (centres unmarked) [compound 461, 3,4-dichloro-N-{5-[(2-ethylhexyl)amino]-1,3,4-thiadiazol-2-yl}benzamide] | 20.6 | – |
| O=C(Nc1nnc(NCc2ccc(Cl)c(Cl)c2)s1)c1cccc([N+](=O)[O-])c1 [compound 462, N-{5-[(3,4-dichlorobenzyl)amino]-1,3,4-thiadiazol-2-yl}-3-nitrobenzamide] | 20.5 | – |
| CCOc1ccc2ccccc2c1C(=O)Nc1nnc(NCCNC(C)=O)s1 [compound 463, N-(5-{[2-(acetylamino)ethyl]amino}-1,3,4-thiadiazol-2-yl)-2-ethoxy-1-naphthamide] | 20.3 | – |
| N#Cc1ccc(C(=O)Nc2nnc(NCCN3CCOCC3)s2)cc1 [compound 464, 4-cyano-N-{5-[(2-morpholinoethyl)amino]-1,3,4-thiadiazol-2-yl}benzamide] | 20.3 | – |
| O=C(/C=C/c1ccccc1)Nc1nnc(NC2CC2)s1 [compound 465, (E)-N-[5-(cyclopropylamino)-1,3,4-thiadiazol-2-yl]-3-phenyl-2-propenamide] | 20.2 | – |
| CCSCCNc1nnc(NC(=O)c2cc3ccccc3s2)s1 [compound 466, N-(5-{[2-(ethylsulfanyl)ethyl]amino}-1,3,4-thiadiazol-2-yl)-1-benzothiophene-2-carboxamide] | 20.1 | – |
| CN1CCN(CCCNc2nnc(NC(=O)c3ccc(I)cc3)s2)CC1 [compound 467] | 20.1 | – |
| O=C(Nc1nnc(NC2CCCc3ccccc32)s1)c1cc(F)cc(F)c1 (centres unmarked) [compound 468, 3,5-difluoro-N-[5-(1,2,3,4-tetrahydro-1-naphthalenylamino)-1,3,4-thiadiazol-2-yl]benzamide] | 20.1 | – |
| O=C(Nc1nnc(NCCN2CCOCC2)s1)c1cccc([N+](=O)[O-])c1 [compound 469, N-{5-[(2-morpholinoethyl)amino]-1,3,4-thiadiazol-2-yl}-3-nitrobenzamide] | 20.1 | – |
| O=C(Nc1nnc(NCC2CC2)s1)c1ccc(I)cc1 [compound 470, N-{5-[(cyclopropylmethyl)amino]-1,3,4-thiadiazol-2yl}-4-iodobenzamide] | 20 | – |
| N#Cc1ccc(C(=O)Nc2nnc(NCc3ccc4c(c3)OCO4)s2)cc1 [compound 471, N-{5-[(1,3-benzodioxol-5-ylmethyl)amino]-1,3,4-thiadiazol-2-yl}-4-cyanobenzamide] | 20 | – |
